Patent US10167262B2, “Herbicidal substituted 3-arylpyrazoles” (FMC CORPORATION, priority 2014, dated 2019)

Columns and labels:
Format in all cases: in vivo
[1] = system: Italian ryegrass (Lolium multiflorum); assay: Test E pre-/postemergence greenhouse test, plant response rating 0-100; conditions: Postemergence, scale 0 to 100
Excerpt: (§1) Seeds of plant species selected from corn (Zea mays), soybean (Glycine max), velvetleaf (Abutilon theophrasti), lambsquarters (Chenopodium album), wild poinsettia (Euphorbia heterophylla), palmer pigweed (Amaranthus palmeri), waterhemp (common waterhemp, Amaranthus rudis), surinam grass (Brachiaria decumbens), large (Lg) crabgrass (Digitaria sanguinalis), Brazilian crabgrass (Digitaria horizontalis), fall panicum (Panicum dichotomiflorum), giant foxtail (Setaria faberii), green foxtail (Setaria viridis), goosegrass (Eleusine indica), johnsongrass (Sorghum halepense), ragweed (common ragweed, Ambrosia elatior), barnyardgrass (Echinochloa crus-galli), sandbur (southern sandbur, Cenchrus echinatus), arrowleaf sida (Sida rhombifolia), Italian ryegrass (Lolium multiflorum), dayflower (Virginia (VA) dayflower, Commelina virginica), field bindweed (Convolvulus arvensis), morningglory (Ipomoea coccinea), nightshade (eastern black nightshade, Solanum ptycanthum), kochia (Kochia scoparia), yellow nutsedge (Cyperus esculentus), smartweed (ladysthumb smartweed, Polygonum persicaria), cocklebur (common cocklebur, Xanthium strumarium), and hairy beggarticks (Bidens pilosa), were planted into a silt loam soil and treated preemergence with test chemicals formulated in a non-phytotoxic solvent mixture which included a surfactant.
(§2) At the same time, plants from these crop and weed species and also waterhemp_RES1, (ALS & Triazine resistant common waterhemp, Amaranthus rudis), and waterhemp_RES2, (ALS & HPPD resistant common waterhemp, Amaranthus rudis) were planted in pots containing Redi-Earth® planting medium (Scotts Company, 14111 Scottslawn Road, Marysville, Ohio 43041) comprising spaghnum peat moss, vermiculite, wetting agent and starter nutrients were treated with postemergence applications of test chemicals formulated in the same manner. Plants ranged in height from 2 to 18 cm for postemergence treatments (1- to 4-leaf stage).
(§3) Treated plants and controls were maintained in a greenhouse for 14 to 21 days, after which time all species were compared to controls and visually evaluated. Plant response ratings, summarized in Table E, are based on a scale of 0 to 100 where 0 is no effect and 100 is complete control. A dash (-) response means no test result.

[2] = system: palmer pigweed (Amaranthus palmeri); assay: as above; conditions: Postemergence, scale 0 to 100
Excerpt: as §1, §2, §3

[3] = system: arrowleaf sida (Sida rhombifolia); assay: as above; conditions: Postemergence
Excerpt: as §1, §2, §3

[4] = system: fall panicum (Panicum dichotomiflorum); assay: as above; conditions: Postemergence, scale 0 to 100
Excerpt: as §1, §2, §3

corn (Zea mays) = assay: as above; conditions: Postemergence, scale 0 to 100
Excerpt: as §1, §2, §3

[5] = system: dayflower (Virginia (VA) dayflower, Commelina virginica); assay: as above; conditions: Postemergence, scale 0 to 100
Excerpt: as §1, §2, §3

[6] = system: waterhemp (common waterhemp, Amaranthus rudis); assay: as above; conditions: Postemergence, scale 0 to 100
Excerpt: as §1, §2, §3

[7] = system: Brazilian crabgrass (Digitaria horizontalis); assay: as above; conditions: Postemergence, scale 0 to 100
Excerpt: as §1, §2, §3

[8] = system: wild poinsettia (Euphorbia heterophylla); assay: as above; conditions: Postemergence, scale 0 to 100
Excerpt: as §1, §2, §3

[9] = system: field bindweed (Convolvulus arvensis); assay: as above; conditions: Postemergence, scale 0 to 100
Excerpt: as §1, §2, §3

[10] = system: waterhemp_RES2, (ALS & HPPD resistant common waterhemp, Amaranthus rudis); assay: Test E postemergence greenhouse test, plant response rating 0-100; conditions: scale 0 to 100
Protocol: as §2, §3

CCn1cc(C(=O)c2cccs2)c(-c2cc(Cl)cc(Cl)c2)n1 [Compound 18]
Plant response rating, Ryegrass, Italian ([1]; 31 g ai/ha): 0
Plant response rating, Ryegrass, Italian ([1]; 62 g ai/ha): 0
Plant response rating, Ryegrass, Italian ([1]; 125 g ai/ha): 0
Plant response rating, Ryegrass, Italian ([1]; 250 g ai/ha): 0
Plant response rating, Ryegrass, Italian ([1]; 500 g ai/ha): 0
Plant response rating, Pigweed, Palmer ([2]; 31 g ai/ha): 90
Plant response rating, Pigweed, Palmer ([2]; 62 g ai/ha): 90
Plant response rating, Pigweed, Palmer ([2]; 125 g ai/ha): 90
Plant response rating, Pigweed, Palmer ([2]; 250 g ai/ha): 98
Plant response rating, Pigweed, Palmer ([2]; 500 g ai/ha): 98
Plant response rating, Arrowleaf Sida ([3]; 31 g ai/ha, scale 0 to 100): 60
Plant response rating, Arrowleaf Sida ([3]; 62 g ai/ha, scale 0 to 100): 70
Plant response rating, Arrowleaf Sida ([3]; 125 g ai/ha, scale 0 to 100): 80
Plant response rating, Arrowleaf Sida ([3]; 250 g ai/ha, scale 0 to 100): 80
Plant response rating, Arrowleaf Sida ([3]; 500 g ai/ha, scale 0 to 100 (0 no effect, 100 complete control)): 85
Plant response rating, Panicum, Fall ([4]; 31 g ai/ha): 0
Plant response rating, Panicum, Fall ([4]; 62 g ai/ha): 0
Plant response rating, Panicum, Fall ([4]; 125 g ai/ha): 0
Plant response rating, Panicum, Fall ([4]; 250 g ai/ha): 0
Plant response rating, Panicum, Fall ([4]; 500 g ai/ha): 10
Plant response rating, Corn (corn (Zea mays); 31 g ai/ha): 0
Plant response rating, Corn (corn (Zea mays); 62 g ai/ha): 0
Plant response rating, Corn (corn (Zea mays); 125 g ai/ha): 0
Plant response rating, Corn (corn (Zea mays); 250 g ai/ha): 0
Plant response rating, Corn (corn (Zea mays); 500 g ai/ha): 10
Plant response rating, Dayflower, VA ([5]; 31 g ai/ha): 0
Plant response rating, Dayflower, VA ([5]; 62 g ai/ha): 0
Plant response rating, Dayflower, VA ([5]; 125 g ai/ha): 0
Plant response rating, Dayflower, VA ([5]; 250 g ai/ha): 0
Plant response rating, Dayflower, VA ([5]; 500 g ai/ha): 5
Plant response rating, Waterhemp ([6]; 31 g ai/ha): 50
Plant response rating, Waterhemp ([6]; 62 g ai/ha): 75
Plant response rating, Waterhemp ([6]; 125 g ai/ha): 85
Plant response rating, Waterhemp ([6]; 250 g ai/ha): 90
Plant response rating, Waterhemp ([6]; 500 g ai/ha): 95
Plant response rating, Crabgrass, Brazil ([7]; 31 g ai/ha): 0
Plant response rating, Crabgrass, Brazil ([7]; 62 g ai/ha): 5
Plant response rating, Crabgrass, Brazil ([7]; 125 g ai/ha): 15
Plant response rating, Crabgrass, Brazil ([7]; 250 g ai/ha): 20
Plant response rating, Crabgrass, Brazil ([7]; 500 g ai/ha): 20
Plant response rating, Poinsettia, Wild ([8]; 31 g ai/ha): 5
Plant response rating, Poinsettia, Wild ([8]; 62 g ai/ha): 20
Plant response rating, Poinsettia, Wild ([8]; 125 g ai/ha): 30
Plant response rating, Poinsettia, Wild ([8]; 250 g ai/ha): 30
Plant response rating, Poinsettia, Wild ([8]; 500 g ai/ha): 40
Plant response rating, Field Bindweed ([9]; 31 g ai/ha): 0
Plant response rating, Field Bindweed ([9]; 62 g ai/ha): 15
Plant response rating, Field Bindweed ([9]; 125 g ai/ha): 25
Plant response rating, Field Bindweed ([9]; 250 g ai/ha): 25
Plant response rating, Field Bindweed ([9]; 500 g ai/ha): 35
Plant response rating, Waterhemp_RES2 ([10]; 31 g ai/ha): 65
Plant response rating, Waterhemp_RES2 ([10]; 62 g ai/ha): 80
Plant response rating, Waterhemp_RES2 ([10]; 125 g ai/ha): 85
Plant response rating, Waterhemp_RES2 ([10]; 250 g ai/ha): 90
Plant response rating, Waterhemp_RES2 ([10]; 500 g ai/ha): 95
